Laboratory results: publication PMC12530851, “Design, synthesis, and apoptotic antiproliferative activity of novel dihydropyrimidine-5-carbonitrile/1,2,4-oxadiazole hybrids as dual EGFR/VEGFR-2 inhibitors endowed with antioxidant activity” (RSC Advances, 2025)
Where two headings read alike, the source gives them in different places.

How the values were obtained:
EGFR [1] = target: T1, EGFR (Homo sapiens, UniProt P00533); test: EGFR inhibitory assay (EGFR-TK test)
Description: Baculoviral expression vectors including pBlueBacHis2B and pFASTBacHTc were used
5ʹ upstream to the EGFR sequence comprised a sequence that encoded (His)6. Sf-9 cells were infected for 72h for protein expression. The pellets of Sf-9 cells were solubilized in a buffer containing sodium vanadate (100 μM), aprotinin (10 μg/mL), triton (1%), HEPES
buffer(50mM), ammonium molybdate (10 μM), benzamidine HCl (16 μg/mL), NaCl (10 mM),leupeptin (10 μg/mL) and pepstatin (10 μg/mL) at 0°C for 20 min at pH 7.4, followed by centrifugation for 20 min. To eliminate the nonspecifically bound material, a Ni-NTA super flow packed column was used to pass through and wash the crude extract supernatant first with 10mM and then with 100 mM imidazole. Histidine-linked proteins were first eluted with 250 and then with 500 mM imidazole subsequent to dialysis against NaCl (50 mM), HEPES (20 mM), glycerol (10%) and 1 μg/mL each of aprotinin, leupeptin and pepstatin for 120 min. The purification was performed either at 4 °C or on ice. To record autophosphorylation level, EGFR kinase assay was carried out on the basis of DELFIA/Time-Resolved Fluorometry. The compounds were first
dissolved in DMSO absolute, subsequent to dilution to appropriate concentration using HEPES
(25 mM) at pH 7.4. Each compound (10 μL) was incubated with recombinant enzyme (10 μL, 5
ng for EGFR, 1:80 dilution in 100 mM HEPES) for 10 min at 25 °C, subsequent to the addition of
5X buffer (10 μL, containing 2 mM MnCl2, 100 μM Na3VO4, 20 mM HEPES and 1 mM DTT)
and ATP-MgCl2 (20 μL, containing 0.1 mM ATP and 50 mM MgCl2) and incubation for 1h. The
negative and positive controls were included in each plate by the incubation of enzyme either with
or without ATP-MgCl2. The liquid was removed after incubation and the plates were washed
thrice using a wash buffer. The Europium-tagged antiphosphotyrosine antibody (75 μL, 400 ng)
was added to each well followed by incubation of 1h and then washing of the plates using buffer.
The enhancement solution was added to each well and the signal was recorded at excitation and
The autophosphorylation percentage inhibition by compounds was calculated using the following equation:
calculated. The majority of signals detected by antiphosphotyrosine antibody were from EGFR because the enzyme preparation contained low impurities.

MCF-7 (breast cancer) = test: Antiproliferative assay, MCF-7; format: cell-based, human; conditions: Homo sapiens, MCF7; MCF-7 breast cancer cells; read-out: Antiproliferative activity IC50 ± SEM, MCF-7
Excerpt: (§1) The dose–response experiments established the IC50 values for the new compounds. The given findings were obtained from at least two distinct studies, each comprising three repeats per concentration. Appendix A (SI File) provides experimental details.[38,39]
(§2) The MTT assay[43] was utilized to assess the antiproliferative effects of compounds 10a–l on four human cancer cell lines: HT-29 (colon cancer), Panc-1 (pancreatic cancer), A-549 (lung cancer), and MCF-7 (breast cancer). […]
(§3) 4.2.2. Assay for antiproliferative effect
(§4) To explore the antiproliferative potential of compounds propidium iodide fluorescence assay was performed using different cell lines such as Panc-1 (pancreas cancer cell line), MCF-7 (breast cancer cell line), HT-29 (colon cancer cell line) and A-549 (epithelial cancer cell line), respectively. To calculate the total nuclear DNA, a fluorescent dye (propidium iodide, PI) is used which can attach to the DNA, thus offering a quick and precise technique. PI cannot pass through the cell membrane and its signal intensity can be considered as directly proportional to quantity of cellular DNA. Cells whose cell membranes are damaged or have changed permeability are counted as dead ones. The assay was performed by seeding the cells of different cell lines at a density of 3000-7500 cells/well (in 200μl medium) in culture plates followed by incubation for 24h at 37 °C in humidified 5%CO2/95% air atmospheric conditions. The medium was removed; the compounds were added to the plates at 10 μM concentrations (in 0.1% DMSO) in triplicates, followed by incubation for 48h. DMSO (0.1%) was used as control. After incubation, medium was removed followed by the addition of PI (25 μl, 50μg/mL in water/medium) to each well of the plates. At - 80 °C, the plates were allowed to freeze for 24 h, followed by thawing at 25 °C. A fluorometer (Polar-Star BMG Tech) was used to record the readings at excitation and emission wavelengths of 530 and 620 nm for each well. The percentage cytotoxicity of compounds was calculated using […]
(§5) Where ATC= Absorbance of treated cells and AC= Absorbance of control. Erlotinib was used as positive control in the assay. […]

[2] = test system: Panc-1 (pancreatic cancer); test: Antiproliferative assay, Panc-1; format: cell-based; conditions: Homo sapiens; Panc-1 pancreatic cancer cells; read-out: Antiproliferative activity IC50 ± SEM, Panc-1
Excerpt: as §1, §2, §3, §4, §5

VEGFR-2 [3] = target: T2, VEGFR-2 (Homo sapiens, UniProt P35968); test: VEGFR-2 inhibitory assay
Description: The majority of signals detected by antiphosphotyrosine antibody were from EGFR because the enzyme preparation contained low impurities.
Prepare all the solutions using autoclaved, deionized water and analytical grade reagents. Prepare
and store all the reagents at room temperature (unless indicated otherwise). EDTA solution (0.5
M, pH 8.0): add 95 mL ultra-pure water to 14.612 g EDTA, adjust the pH to 8.0 using NaOH
solution, add 5 mL ultra-pure water; 1×Kinase Assay Buffer: add 25 mL HEPES solution (1 M),
water, adjust pH to 7.5 and constant volume to 500 mL using ultrapure water; 4×Stop solution (40
mM): Mix 0.8 mL of the foregoing EDTA solution, 1 mL 10×Detection Buffer and 8.2 mL ultra-
pure water; 1×Detection Buffer: Mix 1 mL 10×Detection Buffer with 9 mL water; 4×VEGFR
μM) was added to 624 μL 1×Kinase Assay Buffer and mixed; 4×ULight™-labeled JAK1
concentration 5 μM) was added to 576 μL 1×Kinase Assay Buffer and mixed; 4×ATP Solution
2×substrate/ATP Mix: 560 μL foregoing 4×ULight™-labeled JAK1 and 560 μL 4×ATP solution
and mixed (prepared before use). The assays used an ULight-labeled peptide substrate and a
Europium-W1024-labeled antiphosphotyrosine antibody. The VEGFR-2 was purchased from
Carna Biosciences, Inc. (New York, USA). The 384-well plates were obtained from PerkinElmer.
Compounds were dissolved in DMSO and diluted to 11 concentrations at a tripling rate from 2.500
5 μL 2×VEGFR-2 kinase solution (0.5 nM)
was added to 384-well plates homogeneous mixing and pre-reaction at room temperature for 30
min. Next, 2.5 μL 4×Ultra ULightTM-JAK-1(Tyr1023) Peptide (200 nM)/ATP (40 μM) was
added to the corresponding wells of a 384-well plate. Negative control: 2.5 μL/well 4×substrate/ATP mixture and 7.5 μL 1×kinase assay buffer in 384-well plate well. Positive control:
μL/well 2×VEGFR-2 kinase solution was added to the 384-well plate, The final concentration of DMSO in the mixing system was 4%. After incubation at room temperature and dark for 60 min, 5 μL 4×stop solution was added to corresponding wells to react for 5 min and then 5 μL 4×detection mix was added to the corresponding wells of a 384-well plate. The mixture was centrifugally mixed and stayed for 60 min at room temperature for color development. The plate
was read using an Envision plate reader. The inhibition rate (%) = (positive well reading-
compound well reading)/(positive well reading-negative well reading)×100. The corresponding IC50 values were calculated using GraphPad Prism 5.0.

[4] = test system: four human cancer cell lines (A-549, MCF-7, Panc-1, HT-29); test: Antiproliferative assay, average over four cancer cell lines; format: cell-based; conditions: for GI50: average IC50 across A-549, MCF-7, Panc-1, HT-29
Description: The given findings were obtained from at least two distinct studies, each comprising three repeats per concentration. Appendix A (SI File) provides experimental details.[38,39] […]
as §3
To explore the antiproliferative potential of compounds propidium iodide fluorescence assay was performed using different cell lines such as Panc-1 (pancreas cancer cell line), MCF-7 (breast […]
respectively. To calculate the total nuclear DNA, a fluorescent dye (propidium iodide, PI) is used which can attach to the DNA, thus offering a quick and precise technique. PI cannot pass through the cell membrane and its signal intensity can be considered as directly proportional to quantity of cellular DNA. Cells whose cell membranes are damaged or have changed permeability are counted as dead ones. The assay was performed by seeding the cells of different cell lines at a density of 3000-7500 cells/well (in 200μl medium) in culture plates followed by incubation for 24h at 37 °C […]
The medium was removed; the compounds were added to the plates at 10 μM concentrations (in 0.1% DMSO) in triplicates, followed by incubation for 48h. DMSO (0.1%) was used as control. After incubation, medium was removed followed by the addition of PI (25 μl, 50μg/mL in water/medium) to each well of the plates. At - 80 °C, the plates were allowed to freeze for 24 h, followed by thawing at 25 °C. A fluorometer (Polar-Star BMG Tech) was used to record the readings at excitation and emission wavelengths of 530 and 620 nm for each well. The percentage cytotoxicity of compounds was calculated using […]
Where ATC= Absorbance of treated cells and AC= Absorbance of control. […]
positive control in the assay. […]

HT-29 (colon cancer) = test: Antiproliferative assay, HT-29; format: cell-based; conditions: Homo sapiens; HT-29 colon cancer cells; read-out: Antiproliferative activity IC50 ± SEM, HT-29
Excerpt: as §1, §2, §3, §4, §5

A-549 (lung cancer) = test: Antiproliferative assay, A-549; format: cell-based; conditions: Homo sapiens, A549; A-549 lung cancer cells; read-out: Antiproliferative activity IC50 ± SEM, A-549
Excerpt: as §1, §2, §3, §4, §5

[5] = Cell viability assay (MTT) on normal MCF-10A cells; format: cell-based; conditions: human, MCF-10A mammary gland epithelial cells (normal cell line), MCF-10A normal cells, four-day incubation
Description: The impact of novel compounds 10a–l on the viability of a normal human cell line, specifically human mammary gland epithelial cells (MCF-10A), was assessed to ascertain the safety of the newly synthesized compounds. The MTT test was employed to assess the cell viability of the novel compounds after a four-day incubation with MCF-10A cells.[29,37] Refer to Appendix A for more experimental details.
The effect of new compounds 10a–l on the viability of a normal human cell line, namely human mammary gland epithelial cells (MCF-10A), was evaluated to determine the safety of the newly synthesized compounds.
4.2. Biological evaluation
4.2.1 Cell Viability assay (MTT assay)
MTT assay was performed to investigate the effect of the synthesized compounds on mammary epithelial cells (MCF-10A). The cells were propagated in medium consisting of Ham's F-12 medium/ Dulbecco's modified Eagle's medium (DMEM) (1:1) supplemented with 10% foetal calf serum, 2 mM glutamine, insulin (10 μg/mL), hydrocortisone (500 ng/mL) and epidermal growth factor (20 ng/mL). Trypsin ethylenediamine tetra acetic acid (EDTA) was used to passage the cells after every 2-3 days. 96-well flat-bottomed cell culture plates were used to seed the cells at a density of 10^4 cells mL-1. The medium was aspirated from all the wells of culture plates after 24 h followed by the addition of synthesized compounds (in 200 μL medium to yield a final concentration of 0.1% (v/v) dimethyl sulfoxide) into individual wells of the plates. Four wells were designated to a single compound. The plates were allowed to incubate at 37°C for 96 h. Afterwards, the medium was aspirated and 3-[4,5-dimethylthiazol-2-yl]-2,5-diphenyltetrazolium bromide (MTT) (0.4 mg/mL) in medium was added to each well and subsequently incubated for 3 h. The medium was aspirated and 150 μL dimethyl sulfoxide (DMSO) was added to each well. The plates were vortexed followed by the measurement of absorbance at 540 nm on a microplate reader. […]

EGFR [6] = target: T1, EGFR; parameters: 645–1186; His6 (N); made in house; host or cells: Sf-9 insect cells (baculovirus; pBlueBacHis2B and pFASTBacHTc vectors); conditions: cited from earlier work
VEGFR-2 [7] = target: T2, VEGFR-2; parameters: purchased Carna Biosciences, Inc; conditions: cited from earlier work
mutant EGFR (EGFR^T790M) = test system: mutant EGFR (EGFR^T790M); parameters: method as in PMID 39281035; conditions: cited from earlier work
BRAF^V600E = test system: BRAF^V600E; parameters: method as in PMID 39281035; conditions: cited from earlier work

T2 sequence (P35968 20-1356): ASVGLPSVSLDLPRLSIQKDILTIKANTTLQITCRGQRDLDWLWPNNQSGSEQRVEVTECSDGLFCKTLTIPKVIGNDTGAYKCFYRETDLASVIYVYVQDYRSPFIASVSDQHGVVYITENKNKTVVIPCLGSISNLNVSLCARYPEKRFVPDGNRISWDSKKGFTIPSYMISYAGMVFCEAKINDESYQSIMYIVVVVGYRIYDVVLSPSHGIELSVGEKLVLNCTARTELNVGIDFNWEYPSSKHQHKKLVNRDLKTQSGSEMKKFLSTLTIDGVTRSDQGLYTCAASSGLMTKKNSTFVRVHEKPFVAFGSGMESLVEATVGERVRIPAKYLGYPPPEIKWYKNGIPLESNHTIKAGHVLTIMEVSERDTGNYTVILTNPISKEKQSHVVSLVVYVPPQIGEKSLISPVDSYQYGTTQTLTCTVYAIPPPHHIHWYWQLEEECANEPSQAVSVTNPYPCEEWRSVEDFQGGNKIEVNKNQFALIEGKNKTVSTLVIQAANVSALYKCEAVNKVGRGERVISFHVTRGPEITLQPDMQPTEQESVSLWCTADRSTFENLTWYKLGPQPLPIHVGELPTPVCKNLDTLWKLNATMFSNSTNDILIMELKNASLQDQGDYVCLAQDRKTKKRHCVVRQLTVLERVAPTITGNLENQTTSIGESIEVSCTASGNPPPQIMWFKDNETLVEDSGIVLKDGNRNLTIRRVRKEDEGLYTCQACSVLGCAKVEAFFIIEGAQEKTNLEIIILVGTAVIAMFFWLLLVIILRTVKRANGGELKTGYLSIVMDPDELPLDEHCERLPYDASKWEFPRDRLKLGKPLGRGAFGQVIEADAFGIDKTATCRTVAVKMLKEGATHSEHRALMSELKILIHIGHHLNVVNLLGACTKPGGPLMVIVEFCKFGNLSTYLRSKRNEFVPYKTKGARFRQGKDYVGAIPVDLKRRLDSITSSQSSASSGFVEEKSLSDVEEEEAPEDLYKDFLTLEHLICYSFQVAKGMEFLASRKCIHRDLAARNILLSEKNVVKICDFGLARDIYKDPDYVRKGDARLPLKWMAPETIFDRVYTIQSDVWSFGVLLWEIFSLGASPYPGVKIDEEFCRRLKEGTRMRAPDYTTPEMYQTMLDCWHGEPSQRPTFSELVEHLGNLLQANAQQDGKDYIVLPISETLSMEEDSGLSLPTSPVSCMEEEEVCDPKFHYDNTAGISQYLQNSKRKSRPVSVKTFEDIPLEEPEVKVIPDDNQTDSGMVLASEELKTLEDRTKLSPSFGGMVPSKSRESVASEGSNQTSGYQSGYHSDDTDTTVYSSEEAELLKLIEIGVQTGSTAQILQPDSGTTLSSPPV
T1 sequence (P00533 669-1210): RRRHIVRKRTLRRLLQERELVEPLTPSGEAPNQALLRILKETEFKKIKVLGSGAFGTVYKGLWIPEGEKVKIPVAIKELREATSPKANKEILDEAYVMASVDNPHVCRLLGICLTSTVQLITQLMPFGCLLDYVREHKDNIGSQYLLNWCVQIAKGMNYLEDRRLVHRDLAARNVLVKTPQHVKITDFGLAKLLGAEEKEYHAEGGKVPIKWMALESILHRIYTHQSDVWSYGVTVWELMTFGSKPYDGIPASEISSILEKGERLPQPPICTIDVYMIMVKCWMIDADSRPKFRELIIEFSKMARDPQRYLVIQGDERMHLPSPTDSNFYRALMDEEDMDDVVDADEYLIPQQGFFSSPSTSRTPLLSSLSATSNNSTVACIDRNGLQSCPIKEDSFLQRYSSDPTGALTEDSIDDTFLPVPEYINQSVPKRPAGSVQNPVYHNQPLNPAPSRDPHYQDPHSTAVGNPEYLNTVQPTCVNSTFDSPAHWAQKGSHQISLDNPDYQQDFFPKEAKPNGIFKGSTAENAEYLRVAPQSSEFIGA

| IC50 (EGFR [1]) [µM] | IC50 (MCF-7 (breast cancer)) [µM] | IC50 [2] [µM] | IC50 (VEGFR-2 [3]) [µM] | GI50 ([4]; Homo sapiens) [µM] | GI50 [4] [µM] | IC50 (HT-29 (colon cancer)) [µM] | IC50 (A-549 (lung cancer)) [µM] | Compound | viability at 96 h, 50 µM [5] [%] | further results |
| --- | --- | --- | --- | --- | --- | --- | --- | --- | --- | --- |
| 0.079 ± 0.005 | 0.031 ± 0.002 | 0.035 ± 0.002 | 0.043 ± 0.003 | 0.031 | 0.034 | 0.036 ± 0.002 | 0.035 ± 0.002 | N#Cc1c(-c2ccc(Cl)cc2)nc(SCc2nc(-c3ccc(Cl)cc3)no2)[nH]c1=O [Compound 10h, 2-(((3-(4-Chlorophenyl)-1,2,4-oxadiazol-5-yl)methyl)thio)-4-(4-chlorophenyl)-6-oxo-1,6-dihydropyrimidine-5-carbonitrile] | 92 | Reduction in antiproliferative potency relative to 10k (GI50) ([4]; less potent than 10k): 1.6 fold |
| 0.071 ± 0.005 | 0.028 ± 0.001 | 0.03 ± 0.001 | 0.039 ± 0.002 | 0.034 | 0.031 | 0.034 ± 0.001 | 0.033 ± 0.002 | COc1ccc(-c2noc(CSc3nc(-c4ccc(Cl)cc4)c(C#N)c(=O)[nH]3)n2)cc1 [Compound 10i, 2-(((3-(4-Methoxyphenyl)-1,2,4-oxadiazol-5-yl)methyl)thio)-4-(4-chlorophenyl)-6-oxo-1,6-dihydropyrimidine-5-carbonitrile] | 91 |  |
|  |  |  |  |  |  |  |  | COc1cc(-c2noc(Cn3cc(-c4ccccc4)nn3)n2)cc(OC)c1OC [Compound III] |  | IC50 (EGFR [6]): 0.076 µM; IC50 (VEGFR-2 [7]; read-out: VEGFR-2 IC50): 0.0024 µM |
|  |  |  |  |  |  |  |  | CC(=O)c1ccc(NC(=O)CSC2=NC(=O)C(C#N)C(c3ccccc3)N2)cc1 (stereo not shown) [Compound II] |  | IC50 (VEGFR-2 [7]; read-out: VEGFR-2 kinase IC50): 0.199 µM |
|  |  |  |  |  |  |  |  | O=c1c2ccccc2nc(SCc2nc(-c3ccc(Cl)cc3)no2)n1-c1ccccc1 [Compound IV] |  | Efficacy against mutant EGFR (EGFR^T790M) (mutant EGFR (EGFR^T790M)): considerable efficacy; IC50 (BRAF^V600E): 0.048 µM |
|  |  |  |  |  |  |  |  | COc1ccc(-c2csc(NC(=O)CSc3nc(-c4ccc(OC)cc4)c(C#N)c(=O)[nH]3)n2)cc1 [Compound I] |  | IC50 (EGFR [6]; in vitro EGFR inhibitory assay): 0.19 ± 0.2 µM |
